Read-outs that look alike come from different tables or passages of the source.
Tests used:
Type in all cases: biochemical
[1] = target: T1, Human recombinant PDE2A (hPDE2A) (Homo sapiens, UniProt O00408); assay: In vitro assay PDE2A (SPA, 3H-cGMP hydrolysis); settings: for Emax: read-out: hPDE2A Emax
T1 construct: His tag (inferred from metal chelate purification); made in house; host or cells: Sf9 insect cells (baculovirus)

[2] = target: T2, Human recombinant PDE3A (hPDE3A) (Homo sapiens, UniProt Q14432); assay: In vitro assay PDE3A (SPA, 3H-cAMP hydrolysis); settings: for IC50: hPDE3B pIC50; for Emax: read-out: hPDE3B Emax, read-out: Emax;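 as to Emax: the method names PDE3A and the table heading PDE3B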
T2 construct: purchased Scottish Biomedical; host or cells: Sf9 insect cells
Procedure, shortened: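 Radiometric SPA measuring [3H]-cAMP hydrolysis (0.4 μM cAMP, 2.4 μCi/ml) over 60 min at room temperature, in Tris pH 7.8 buffer with MgCl2 and EGTA, 1% DMSO. Enzyme: recombinant human brain PDE3A expressed in Sf9 cells, used as partially purified lysate. Counts compared with enzyme-free blanks and vehicle controls.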

[3] = target: T3, Human recombinant PDE10A (hPDE10A) (Homo sapiens, UniProt Q9Y233); assay: In vitro assay PDE10A, human clone (SPA, 3H-cAMP hydrolysis); settings: for Emax: read-out: hPDE10A2 or rPDE10A2 Emax
T3 construct: His tag (inferred from metal chelate purification); made in house; host or cells: Sf9 insect cells (baculovirus)
Procedure, shortened: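 Hydrolysis of 3H-cAMP (60 nM cAMP, 0.008 μCi tracer) proceeded for 60 min at room temperature, with the product detected by SPA bead scintillation counting. The enzyme was hPDE10A from baculovirus-infected Sf9 cells in Tris pH 7.8 buffer with MgCl2 and EGTA, and compounds were at 1% DMSO final. Blanks lacked enzyme.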

[4] = human clone by default (no (r) mark)
[5] = read-out: hPDE2A pIC50 (converted)
[6] = human clone by default (no (r) mark), read-out: hPDE10A2 or rPDE10A2 pIC50 (converted)

T1 sequence (O00408 whole entry): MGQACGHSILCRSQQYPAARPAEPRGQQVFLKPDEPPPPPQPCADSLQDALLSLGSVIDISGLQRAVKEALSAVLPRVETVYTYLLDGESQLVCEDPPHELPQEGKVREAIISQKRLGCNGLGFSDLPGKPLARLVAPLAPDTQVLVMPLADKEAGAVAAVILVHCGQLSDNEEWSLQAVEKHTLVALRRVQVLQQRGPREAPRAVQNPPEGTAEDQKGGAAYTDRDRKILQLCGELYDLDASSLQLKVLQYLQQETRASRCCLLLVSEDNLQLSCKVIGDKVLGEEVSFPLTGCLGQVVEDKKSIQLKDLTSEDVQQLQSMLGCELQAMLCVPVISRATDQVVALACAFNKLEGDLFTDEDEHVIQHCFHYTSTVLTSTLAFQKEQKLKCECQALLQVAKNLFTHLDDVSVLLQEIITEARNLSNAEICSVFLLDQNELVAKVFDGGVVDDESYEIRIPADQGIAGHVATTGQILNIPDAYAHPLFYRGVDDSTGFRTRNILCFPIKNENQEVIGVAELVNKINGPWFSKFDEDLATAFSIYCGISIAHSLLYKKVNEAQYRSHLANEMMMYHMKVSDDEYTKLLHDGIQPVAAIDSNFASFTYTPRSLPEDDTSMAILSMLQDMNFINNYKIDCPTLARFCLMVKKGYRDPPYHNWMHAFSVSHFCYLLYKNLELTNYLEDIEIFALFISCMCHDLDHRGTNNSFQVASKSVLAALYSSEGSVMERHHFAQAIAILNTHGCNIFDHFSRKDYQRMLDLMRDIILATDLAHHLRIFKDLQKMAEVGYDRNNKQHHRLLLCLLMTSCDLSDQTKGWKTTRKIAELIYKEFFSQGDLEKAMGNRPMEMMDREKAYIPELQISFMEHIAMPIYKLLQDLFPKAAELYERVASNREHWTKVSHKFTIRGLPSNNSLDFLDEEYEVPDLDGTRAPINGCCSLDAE
T3 sequence (Q9Y233 267-1055): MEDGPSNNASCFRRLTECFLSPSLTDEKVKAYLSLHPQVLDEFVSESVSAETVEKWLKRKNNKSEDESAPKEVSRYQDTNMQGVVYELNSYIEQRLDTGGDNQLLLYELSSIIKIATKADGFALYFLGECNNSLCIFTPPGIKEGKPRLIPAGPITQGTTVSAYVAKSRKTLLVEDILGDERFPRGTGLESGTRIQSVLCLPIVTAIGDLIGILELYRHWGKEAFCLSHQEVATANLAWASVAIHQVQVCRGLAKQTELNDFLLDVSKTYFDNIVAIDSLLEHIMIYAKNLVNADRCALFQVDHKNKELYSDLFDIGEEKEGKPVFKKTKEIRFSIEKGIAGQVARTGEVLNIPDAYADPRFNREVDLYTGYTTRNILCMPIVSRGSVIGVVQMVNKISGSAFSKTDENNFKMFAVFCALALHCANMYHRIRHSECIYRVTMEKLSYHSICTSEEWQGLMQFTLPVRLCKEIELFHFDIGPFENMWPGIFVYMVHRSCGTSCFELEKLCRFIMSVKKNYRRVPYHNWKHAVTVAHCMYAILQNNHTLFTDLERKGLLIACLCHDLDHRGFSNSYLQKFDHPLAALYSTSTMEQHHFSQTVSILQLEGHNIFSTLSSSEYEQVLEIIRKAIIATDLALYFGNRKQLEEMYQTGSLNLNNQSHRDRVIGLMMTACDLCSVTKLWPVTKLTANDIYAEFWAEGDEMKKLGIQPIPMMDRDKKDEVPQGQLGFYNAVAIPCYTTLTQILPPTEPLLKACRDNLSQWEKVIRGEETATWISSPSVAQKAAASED
T2 sequence (Q14432 whole entry): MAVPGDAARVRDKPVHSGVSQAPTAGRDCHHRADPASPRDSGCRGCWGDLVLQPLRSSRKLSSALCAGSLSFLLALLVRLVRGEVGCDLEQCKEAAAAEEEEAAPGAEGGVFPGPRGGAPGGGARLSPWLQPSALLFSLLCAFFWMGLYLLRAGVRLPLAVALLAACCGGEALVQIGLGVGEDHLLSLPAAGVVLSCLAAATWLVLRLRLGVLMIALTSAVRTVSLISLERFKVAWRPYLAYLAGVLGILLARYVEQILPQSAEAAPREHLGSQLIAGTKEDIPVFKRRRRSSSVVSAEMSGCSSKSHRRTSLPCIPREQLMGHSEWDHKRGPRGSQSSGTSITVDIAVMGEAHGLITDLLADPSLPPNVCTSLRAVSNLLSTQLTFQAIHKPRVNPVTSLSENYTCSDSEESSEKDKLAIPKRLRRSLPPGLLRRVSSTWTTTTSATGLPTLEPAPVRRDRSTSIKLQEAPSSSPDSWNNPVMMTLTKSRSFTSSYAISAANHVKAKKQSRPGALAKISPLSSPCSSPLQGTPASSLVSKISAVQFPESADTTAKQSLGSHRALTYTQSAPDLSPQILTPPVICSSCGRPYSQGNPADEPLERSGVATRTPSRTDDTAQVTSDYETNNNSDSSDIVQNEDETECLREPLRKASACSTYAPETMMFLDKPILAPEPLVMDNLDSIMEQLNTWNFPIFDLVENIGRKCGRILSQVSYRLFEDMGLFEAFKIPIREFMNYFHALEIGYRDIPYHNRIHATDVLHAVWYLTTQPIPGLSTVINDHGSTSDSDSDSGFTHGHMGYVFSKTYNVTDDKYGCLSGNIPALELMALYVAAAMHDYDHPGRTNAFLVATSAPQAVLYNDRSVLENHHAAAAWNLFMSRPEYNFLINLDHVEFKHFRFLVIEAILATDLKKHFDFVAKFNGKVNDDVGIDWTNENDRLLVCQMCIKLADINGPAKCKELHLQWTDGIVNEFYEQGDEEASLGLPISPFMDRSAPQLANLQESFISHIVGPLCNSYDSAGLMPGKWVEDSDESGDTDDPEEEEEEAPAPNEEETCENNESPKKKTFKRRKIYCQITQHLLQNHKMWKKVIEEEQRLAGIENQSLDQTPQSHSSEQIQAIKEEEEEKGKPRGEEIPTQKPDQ

| Compound | IC50 ([1]; hPDE2A pIC50) [nM] | Emax [1] [%] | IC50 [2] [nM] | Emax [2] [%] | IC50 ([3]; hPDE10A2 or rPDE10A2 pIC50, human clone by default (no (r) mark)) [nM] | Emax [3, 4] [%] | IC50 [1, 5] [nM] | IC50 ([2]; read-out: pIC50 (converted)) [nM] | IC50 [3, 6] [nM] | hPDE10A2 or rPDE10A2 Emax [3, 4] | hPDE2A Emax [1] | hPDE3B Emax [2] | hPDE10A2 or rPDE10A2 pIC50 [3, 4] |
| --- | --- | --- | --- | --- | --- | --- | --- | --- | --- | --- | --- | --- | --- |
| Cc1nc2cc(C(=O)N3[C@H]4CC[C@H](c5cc(C(F)F)nc6ncnn56)[C@@H]3CC4)ccc2o1 [Compound 306] | 44.7 | 100 | 4470 | 71 | 3630 | 74 |  |  |  |  |  |  |  |
| O=C(c1cccc2ncccc12)N1[C@H]2CC[C@H](c3cc(C(F)F)nc4ncnn34)[C@@H]1CC2 [Compound 315] |  | 98 |  | 20 |  | 47 | 112 | > 10000 | 9770 |  |  |  |  |
| O=C(c1cccc2cccnc12)N1[C@H]2CC[C@H](c3cc(C(F)F)nc4ncnn34)[C@@H]1CC2 [Compound 316] |  | 94 |  | 5 |  | 14 | 257 | > 10000 | > 10000 |  |  |  |  |
| O=C(c1ccnc2ccccc12)N1[C@H]2CC[C@H](c3cc(C(F)F)nc4ncnn34)[C@@H]1CC2 [Compound 317] |  | 99 |  | 15 |  |  |  | > 10000 | > 10000 | 34 |  |  |  |
| O=C(c1ccnc2ccccc12)N1[C@H]2CC[C@H](c3cc(C(F)F)nc4ncnn34)[C@@H]1CC2 [Compound 318] |  |  |  |  |  |  |  |  |  | 13 | 89 | 11 | <5 |
| O=C(c1cccc2ccccc12)N1[C@H]2CC[C@H](c3cc(C(F)F)nc4ncnn34)[C@@H]1CC2 [Compound 320] |  | 100 |  | 47 |  | 62 | 53.7 | > 10000 | 7080 |  |  |  |  |
| C[C@@H]1CCN(C(=O)c2ccc3ccccc3n2)C[C@H]1c1cc(C(F)F)nc2ncnn12 [Compound 323] |  | 100 |  | 95 |  | 97 | 3.89 | 724 | 224 |  |  |  |  |
| C[C@@H]1CCN(C(=O)c2ccc3cnccc3c2)C[C@H]1c1cc(C(F)F)nc2ncnn12 [Compound 326] |  | 100 |  | 97 |  | 99 | 2.14 | 257 | 60.3 |  |  |  |  |
| COc1cc(C(=O)N2[C@H]3CC[C@H](c4cc(C(F)F)nc5ncnn45)[C@@H]2CC3)ccc1Cl [Compound 336] |  | 101 |  | 78 |  | 87 | 18.6 | 3240 | 1910 |  |  |  |  |
| O=C(c1ccc(F)c(F)c1)N1[C@H]2CC[C@H](c3cc(C(F)F)nc4ncnn34)[C@@H]1CC2 [Compound 337] |  | 99 |  | 43 |  | 71 | 166 | > 10000 | 4570 |  |  |  |  |
| O=C(c1ccc(C(F)(F)F)c(F)c1)N1[C@H]2CC[C@H](c3cc(C(F)F)nc4ncnn34)[C@@H]1CC2 [Compound 338] |  | 99 |  | 62 |  | 70 | 91.2 | 5500 | 3090 |  |  |  |  |
| O=C(c1ccc(C(F)(F)F)cc1)N1[C@H]2CC[C@H](c3cc(C(F)F)nc4ncnn34)[C@@H]1CC2 [Compound 340] |  | 100 |  | 69 |  | 72 | 70.8 | 4270 | 3310 |  |  |  |  |
| O=C(c1cc(F)cc(F)c1)N1[C@H]2CC[C@H](c3cc(C(F)F)nc4ncnn34)[C@@H]1CC2 [Compound 341] |  | 97 |  | 33 |  | 63 | 141 | > 10000 | 5010 |  |  |  |  |
| O=C(c1ccc(OC(F)(F)F)c(F)c1)N1[C@H]2CC[C@H](c3cc(C(F)F)nc4ncnn34)[C@@H]1CC2 [Compound 342] |  | 100 |  | 69 |  | 77 | 32.4 | 4470 | 2690 |  |  |  |  |
| COc1cc(C(=O)N2[C@H]3CC[C@H](c4cc(C(F)F)nc5ncnn45)[C@@H]2CC3)ccc1F [Compound 343] |  | 102 |  | 44 |  | 68 | 67.6 | > 10000 | 4570 |  |  |  |  |
| Cc1cc(C(=O)N2[C@H]3CC[C@H](c4cc(C(F)F)nc5ncnn45)[C@@H]2CC3)cc(F)c1F [Compound 344] |  | 99 |  | 61 |  | 80 | 29.5 | 7240 | 2570 |  |  |  |  |
| O=C(c1ccc(F)c(OC(F)F)c1)N1[C@H]2CC[C@H](c3cc(C(F)F)nc4ncnn34)[C@@H]1CC2 [Compound 345] |  | 99 |  | 48 |  | 72 | 75.9 | 8320 | 3720 |  |  |  |  |

| Compound | IC50 ([1]; hPDE2A pIC50) [nM] | Emax [1] [%] | IC50 [2] [nM] | Emax [2] [%] | IC50 ([3]; hPDE10A2 or rPDE10A2 pIC50, human clone by default (no (r) mark)) [nM] | Emax [3, 4] [%] | IC50 [1, 5] [nM] | IC50 ([2]; read-out: pIC50 (converted)) [nM] | IC50 [3, 6] [nM] | hPDE10A2 or rPDE10A2 Emax [3, 4] | hPDE2A Emax [1] | hPDE3B Emax [2] | hPDE10A2 or rPDE10A2 pIC50 [3, 4] |
| --- | --- | --- | --- | --- | --- | --- | --- | --- | --- | --- | --- | --- | --- |
| CC(C)(C)c1ccc(C(=O)N2[C@H]3CC[C@H](c4cc(C(F)F)nc5ncnn45)[C@@H]2CC3)o1 [Compound 348] |  | 99 |  | 70 |  | 92 | 33.9 | 4470 | 1290 |  |  |  |  |
| Cc1ccc(C(=O)N2[C@H]3CC[C@H](c4cc(C(F)F)nc5ncnn45)[C@@H]2CC3)s1 [Compound 349] |  | 102 |  | 64 |  | 86 | 22.4 | 4790 | 1780 |  |  |  |  |
| O=C(c1ccc2c(c1)OC(F)(F)O2)N1[C@H]2CC[C@H](c3cc(C(F)F)nc4ncnn34)[C@@H]1CC2 [Compound 350] |  | 100 |  | 74 |  | 85 | 25.1 | 4900 | 2090 |  |  |  |  |
| O=C(c1ccc(Cl)s1)N1[C@H]2CC[C@H](c3cc(C(F)F)nc4ncnn34)[C@@H]1CC2 [Compound 351] |  | 99 |  | 69 |  | 83 | 51.3 | 6310 | 2140 |  |  |  |  |
| Cc1ccc(C(=O)N2[C@H]3CC[C@H](c4cc(C(F)F)nc5ncnn45)[C@@H]2CC3)o1 [Compound 354] |  | 100 |  | 45 |  | 70 | 89.1 | 9770 | 4470 |  |  |  |  |
| O=C(c1ccc(F)c(C(F)(F)F)c1)N1[C@H]2CC[C@H](c3cc(C(F)F)nc4ncnn34)[C@@H]1CC2 [Compound 357] |  | 98 |  | 34 |  | 73 | 77.6 | > 10000 | 3390 |  |  |  |  |
| Cc1cc(C(=O)N2[C@H]3CC[C@H](c4cc(C(F)F)nc5ncnn45)[C@@H]2CC3)c(C)s1 [Compound 358] |  | 102 |  | 40 |  | 58 | 26.9 | > 10000 | 7940 |  |  |  |  |
| COc1c(F)cc(C(=O)N2[C@H]3CC[C@H](c4cc(C(F)F)nc5ncnn45)[C@@H]2CC3)cc1F [Compound 359] |  | 99 |  | 71 |  | 86 | 12 | 3980 | 2140 |  |  |  |  |
| Cc1cc(C(=O)N2CC[C@@H](C)[C@H](c3cc(C(F)F)nc4ncnn34)C2)cc(CO)n1 [Compound 361] |  | 100 |  | 37 |  | 92 | 2.75 | > 10000 | 355 |  |  |  |  |
| Cc1cnc(C(=O)N2[C@H]3CC[C@H](c4cc(C(F)F)nc5ncnn45)[C@@H]2CC3)cc1C [Compound 365] |  | 99 |  | 24 |  | 33 | 63.1 | > 10000 | > 10000 |  |  |  |  |
| O=C(c1cc2n(n1)CCO2)N1[C@H]2CC[C@H](c3cc(C(F)F)nc4ncnn34)[C@@H]1CC2 [Compound 367] |  | 97 |  | 21 |  | 44 | 437 | > 10000 | > 10000 |  |  |  |  |
| C/C(=C\c1ccc(F)cc1)C(=O)N1[C@H]2CC[C@H](c3cc(C(F)F)nc4ncnn34)[C@@H]1CC2 [Compound 370] |  | 100 |  | 87 |  | 94 | 33.9 | 1450 | 661 |  |  |  |  |
| C/C(=C\c1ccccc1)C(=O)N1[C@H]2CC[C@H](c3cc(C(F)F)nc4ncnn34)[C@@H]1CC2 [Compound 371] |  | 101 |  | 96 |  | 98 | 13.8 | 389 | 389 |  |  |  |  |
| O=C(c1ccc2sccc2c1)N1[C@H]2CC[C@H](c3cc(C(F)F)nc4ncnn34)[C@@H]1CC2 [Compound 372] |  | 100 |  | 90 |  | 96 | 1.02 | 1350 | 251 |  |  |  |  |
| Cc1cc2cc(C(=O)N3[C@H]4CC[C@H](c5cc(C(F)F)nc6ncnn56)[C@@H]3CC4)ccc2n1C [Compound 373] |  | 100 |  | 97 |  | 99 | 2.69 | 537 | 316 |  |  |  |  |
| Cn1ccc2cc(C(=O)N3[C@H]4CC[C@H](c5cc(C(F)F)nc6ncnn56)[C@@H]3CC4)cc(F)c21 [Compound 374] |  | 100 |  | 97 |  | 98 | 0.741 | 741 | 182 |  |  |  |  |

— patent US10947242B2, “[1,2,4]triazolo[1,5and#8208;A]pyrimidine compounds as PDE2 inhibitors” (Janssen Pharmaceutica NV, priority 2016, dated 2021)
